Data reported in ChEMBL document CHEMBL1201862, “PubChem BioAssay data set” (2004).
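Cultured in 96-well plates, cells were exposed to test compound for 48 hours across five concentrations. GI50: concentration for 50% inhibition of growth.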 Calls of active or inactive are those of the source. Rule as the data show it: active = GI50 up to about 1.1 µM and inactive = higher.

Columns and labels:
Test in all cases: inhibition of tumour cell growth, NCI panel, 48 h
[1] = tested on: RXF 393
[2] = tested on: ACHN
[3] = tested on: MOLT-4
[4] = tested on: SR
[5] = tested on: SF-268
[6] = tested on: DU-145
[7] = tested on: SK-MEL-5
[8] = tested on: RPMI-8226
[9] = tested on: OVCAR-3
[10] = tested on: SK-MEL-2
[11] = tested on: NCI-H23
[12] = tested on: Hs-578T
[13] = tested on: MDA-MB-231
[14] = tested on: HT-29
[15] = tested on: U-251
[16] = tested on: MCF7
[17] = tested on: SW-620
[18] = tested on: LOX IMVI
[19] = tested on: NCI-H226
[20] = tested on: HOP-62
[21] = tested on: T47D
[22] = tested on: HCT-15
[23] = tested on: SNB-19
[24] = tested on: CCRF-CEM
[25] = tested on: UACC-257
[26] = tested on: NCI-H522
[27] = tested on: K562
[28] = tested on: HL-60
[29] = tested on: EKVX
[30] = tested on: TK-10
[31] = tested on: PC-3
[32] = tested on: BT-549
[33] = tested on: OVCAR-4
[34] = tested on: SN12C
[35] = tested on: OVCAR-5
[36] = tested on: OVCAR-8
[37] = tested on: HOP-92
[38] = tested on: M14
[39] = tested on: KM12
[40] = tested on: A549
[41] = tested on: A498
[42] = tested on: SK-OV-3
[43] = tested on: NCI-H460
[44] = tested on: COLO 205
[45] = tested on: HCT-116
[46] = tested on: CAKI-1
[47] = tested on: HCC 2998
[48] = tested on: 786-0
[49] = tested on: SF-295
[50] = tested on: SF-539
[51] = tested on: Malme-3M
[52] = tested on: MDA-MB-435
[53] = tested on: MDA-N
[54] = tested on: UO-31
[55] = tested on: UACC-62
[56] = tested on: IGROV-1
[57] = tested on: NCI/ADR-RES
[58] = tested on: SK-MEL-28
[59] = tested on: SNB-75

Measured: GI50

O=[N+]([O-])c1cc(C2(N3CCCCC3)CCCCC2)sc1Br
inactive: [1] 3.66 µM | [2] 3.98 µM | [3] 1.8 µM | [4] 2.99 µM | [5] 7.5 µM | [6] 3.18 µM | [7] 5.04 µM | [8] 1.74 µM | [9] 2.72 µM | [10] 7.06 µM | [11] 11.9 µM | [12] 7.05 µM | [13] 11 µM | [14] 3.87 µM | [15] 6.01 µM | [16] 2.83 µM | [17] 4.09 µM | [18] 2.82 µM | [19] 3.33 µM | [20] 6 µM | [21] 1.87 µM | [23] 14.1 µM | [24] 2.08 µM | [25] 2.04 µM | [26] 2.14 µM | [27] 2.92 µM | [28] 2.34 µM | [29] 9.16 µM | [30] 2.39 µM | [31] 4.06 µM | [32] 6.82 µM | [33] 13 µM | [34] 5.15 µM | [35] 19.5 µM | [36] 6.31 µM | [37] 8.81 µM | [38] 7.69 µM | [39] 6.49 µM | [40] 17.1 µM | [41] 5.92 µM | [42] 16.3 µM | [43] 14.4 µM | [44] 3.82 µM | [45] 11.7 µM | [46] 6 µM | [47] 1.74 µM | [48] 3.94 µM | [49] 15.3 µM | [50] 2.52 µM | [51] 3.44 µM | [52] 4.78 µM | [53] 6.41 µM | [54] 12.1 µM | [55] 11.3 µM | [56] 11.4 µM | [57] 3.09 µM | [58] 5.41 µM
5.02 µM: [22]

COc1cc(C2S/C(=C/c3ccccc3)C(=O)N2c2ccc(Cl)cc2)cc(OC)c1OC (stereo not drawn)
inactive: [1] 40.6 µM | [3] 5.79 µM | [4] 70 µM | [5] 8.24 µM | [6] 54.2 µM | [8] 8.18 µM | [9] 26.4 µM | [10] 7.98 µM | [11] 12.7 µM | [12] 32.3 µM | [13] > 43.9 µM | [14] 23.8 µM | [15] 37.7 µM | [16] 3.09 µM | [17] 12.9 µM | [18] 6.03 µM | [19] > 89.1 µM | [20] 14.2 µM | [23] > 88.7 µM | [24] 4.4 µM | [25] 34.2 µM | [28] 23.2 µM | [29] 23.8 µM | [30] > 100 µM | [31] > 46.6 µM | [32] 7.43 µM | [33] 4.71 µM | [34] 39.1 µM | [35] > 100 µM | [36] 22.1 µM | [37] 5.92 µM | [38] 2 µM | [39] 11.3 µM | [40] 24.4 µM | [41] 53.8 µM | [42] > 20.1 µM | [59] 16.4 µM | [45] 3.65 µM | [46] 20.9 µM | [47] 36.6 µM | [48] > 100 µM | [49] 7.64 µM | [51] 23.7 µM | [52] 1.52 µM | [53] 1.58 µM | [55] 23.3 µM | [56] 13.5 µM | [57] 16.9 µM | [58] 63.2 µM
active: [2] 0.178 µM | [7] 0.492 µM | [21] 0.705 µM | [26] 0.656 µM | [44] 0.617 µM
9.51 µM: [22]
